Test systems include MDA-MB-435; MDA-MB-231 breast; UACC-62 melanoma; COLO 205 colon; NCI-H23 lung; SF-539 CNS; SNB-19 CNS; SNB-75 CNS; RPMI-8226 leukemia; SF-268 CNS; ACHN renal; SK-MEL-5 melanoma; HCT-15 colon; U251 CNS; IGROV1 ovarian; OVCAR-8 ovarian; MDA-N; SN12C renal; SK-OV-3 ovarian.
Holding throughout (experiment): NCI tumour cell line growth inhibition, 48 h

The structures appear in SMILES notation.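 Where inhibition never reached the appropriate level, the endpoint shown equals the highest concentration tested. Otherwise, values were interpolated linearly from a five-concentration, 48-hour dose response in 96-well plates. TGI: concentration producing complete growth inhibition.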

Consider `CCOC(=O)c1nc2ccc(C(F)(F)F)cc2nc1Nc1ccc(OC)cc1`, for which the TGI is > 100 µM in the assay with MDA-MB-435; 50.6 µM in the assay with MDA-MB-231 breast; > 100 µM in the assay with UACC-62 melanoma; > 100 µM with COLO 205 colon; > 100 µM in the assay on NCI-H23 lung; 90.1 µM in the assay with SF-539 CNS. Moreover, the TGI with SNB-19 CNS, with SNB-75 CNS, with RPMI-8226 leukemia, in the assay on SF-268 CNS, with ACHN renal and in the assay with SK-MEL-5 melanoma was > 100 µM each time. Moreover, the TGI with HCT-15 colon, with U251 CNS, in the assay with IGROV1 ovarian and with OVCAR-8 ovarian was > 100 µM throughout.
For the compound `Cc1ccc(S(=O)(=O)N/N=C2/CCC3(O)CC2(C)CCC2[C@H]3CC2(C)C)cc1` (stereo partly specified), the TGI with MDA-MB-435 was 57.7 µM; in the assay on UACC-62 melanoma it was 60 µM; with COLO 205 colon, 33.1 µM; in the assay with NCI-H23 lung it was 83.5 µM; with SNB-19 CNS, > 100 µM; in the assay on SNB-75 CNS, 87.3 µM. The TGI in the assay with RPMI-8226 leukemia is > 100 µM; in the assay on MDA-N, 92 µM; with SF-268 CNS, > 100 µM; in the assay with ACHN renal, > 100 µM; with SK-MEL-5 melanoma it was 33.1 µM; in the assay with SN12C renal, > 100 µM. Further, the TGI in the assay with HCT-15 colon is > 100 µM; with U251 CNS, 36 µM; in the assay on SK-OV-3 ovarian it was > 100 µM; in the assay with IGROV1 ovarian, 74.3 µM; in the assay on OVCAR-8 ovarian, > 100 µM.
For `CC1=CCC(C(C)(C)NC(=O)c2ccccc2)C/C1=N/O` (stereo unspecified), the TGI in the assay with MDA-MB-435, in the assay with MDA-MB-231 breast, in the assay with UACC-62 melanoma, with COLO 205 colon, in the assay on NCI-H23 lung and in the assay on SF-539 CNS was > 100 µM each time. The TGI in the assay with SNB-19 CNS, in the assay with SNB-75 CNS, in the assay with MDA-N, with SF-268 CNS, with SK-MEL-5 melanoma and with SN12C renal was > 100 µM in each case. Besides, the TGI with HCT-15 colon, in the assay with U251 CNS, in the assay on SK-OV-3 ovarian, in the assay with IGROV1 ovarian and in the assay on OVCAR-8 ovarian was > 100 µM each time.
On to `COc1cc(C2c3cc4c(cc3C(=O)C3CCC(=O)N32)OCO4)cc(OC)c1O` (stereo unspecified), for which the TGI with MDA-MB-435, in the assay on UACC-62 melanoma, in the assay with COLO 205 colon, in the assay on NCI-H23 lung, in the assay on SF-539 CNS and in the assay with SNB-19 CNS was > 50 µM throughout. Also, the TGI in the assay with SNB-75 CNS, with RPMI-8226 leukemia, with MDA-N, in the assay on ACHN renal, with SN12C renal and with HCT-15 colon was > 50 µM each time. The TGI in the assay with U251 CNS, with SK-OV-3 ovarian, in the assay on IGROV1 ovarian and in the assay with OVCAR-8 ovarian was > 50 µM throughout.
Take `C=C1C(=O)O[C@H]2C1C[C@H](O)[C@@]1(C)OC1CC[C@@]1(C)O[C@H]21` (stereo partly specified): the TGI in the assay with MDA-MB-435 was 53.2 µM; in the assay on UACC-62 melanoma it was 28.2 µM; in the assay on COLO 205 colon it was 16.9 µM; in the assay on NCI-H23 lung, 39.2 µM; with SNB-75 CNS, > 100 µM; in the assay on RPMI-8226 leukemia, 30.2 µM. In addition, the TGI is 95.7 µM in the assay on SF-268 CNS; 34.2 µM in the assay on ACHN renal; 35.4 µM with SK-MEL-5 melanoma; 32.4 µM in the assay on SN12C renal; 40.3 µM with HCT-15 colon; > 100 µM in the assay on U251 CNS. For the same compound, the results for the TGI in the assay with SK-OV-3 ovarian, with IGROV1 ovarian and in the assay with OVCAR-8 ovarian were > 100 µM, 31 µM and 39.6 µM, respectively.
Turning to `CO/C(=N\N=C\c1ccc(Cl)c(Cl)c1)c1ccncc1`, the TGI in the assay on COLO 205 colon, in the assay with NCI-H23 lung, in the assay on SF-539 CNS, in the assay on SNB-19 CNS, with SNB-75 CNS and in the assay on RPMI-8226 leukemia was > 10 µM throughout. The TGI in the assay on MDA-N, in the assay on SF-268 CNS, in the assay with ACHN renal, in the assay on SK-MEL-5 melanoma, in the assay on SN12C renal and in the assay with HCT-15 colon was > 10 µM throughout. Further, the TGI in the assay on U251 CNS, in the assay on SK-OV-3 ovarian, in the assay on IGROV1 ovarian and in the assay with OVCAR-8 ovarian was > 10 µM each time.
On to `CC(C)(O)c1cc2c(cc1C(C)(C)O)-c1ccccc1-2`, for which the TGI with MDA-MB-435, in the assay on MDA-MB-231 breast, with UACC-62 melanoma, in the assay with COLO 205 colon, with SF-539 CNS and in the assay on SNB-19 CNS was > 100 µM throughout. The TGI in the assay on SNB-75 CNS, in the assay with RPMI-8226 leukemia, with SF-268 CNS, in the assay on ACHN renal, in the assay with SK-MEL-5 melanoma and with SN12C renal was > 100 µM each time. The TGI with HCT-15 colon, with U251 CNS, with IGROV1 ovarian and in the assay on OVCAR-8 ovarian was > 100 µM each time.
As for `COc1ccc(COCC[C@H](C)OC2OC(CO)C(O)C(O)C2O)cc1` (stereo partly specified), the TGI with MDA-MB-435, with MDA-MB-231 breast, with UACC-62 melanoma, with COLO 205 colon, in the assay with NCI-H23 lung and with SF-539 CNS was > 100 µM each time. In addition, the TGI in the assay on SNB-19 CNS, in the assay with SNB-75 CNS, in the assay on RPMI-8226 leukemia, in the assay on SF-268 CNS, in the assay on ACHN renal and in the assay on SK-MEL-5 melanoma was > 100 µM each time. Also, the TGI in the assay on SN12C renal, with HCT-15 colon, in the assay on U251 CNS, with SK-OV-3 ovarian, with IGROV1 ovarian and with OVCAR-8 ovarian was > 100 µM throughout.

Values taken from PubChem BioAssay (NCI).
